Values quoted from earlier work, collected in patent US20050163856A1, “Abuse-resistant sustained-release opioid formulation” (Roxane Laboratories, Inc., priority 1999, published 2005).
Counter-ions that a name gives are not always drawn.

Settings: conventional tablet form

Structure (SMILES): COc1ccc2c3c1O[C@H]1C(=O)CC[C@@]4(O)[C@@H](C2)N(C)CC[C@]314 [Oxycodone, oxycodone (dihydrohydroxycodeinone) hydrochloride]
- half-time of absorption: about 0.4 hours
